Results reported in ChEMBL document CHEMBL1201862, “PubChem BioAssay data set” (2004).
Activity calls are given as the source filed them.

Key:
[1] = Intein inhibitors as potential Tuberculosis drugs, a cytotoxicity screen. [Related pubchem assays (depositor defined):AID2221, AID2223, AID434968, AID435010, AID449749, AID449750, AID489010]; format: functional
[2] = molecular target: T1, Replicative DNA helicase DnaB (Mycobacterium tuberculosis, UniProt P9WMR3); assay: DnaB intein splicing inhibitors, dose response, biochemical, cell-free fluorescence (AID 449749); format: functional
T1 sequence (P9WMR3 whole entry): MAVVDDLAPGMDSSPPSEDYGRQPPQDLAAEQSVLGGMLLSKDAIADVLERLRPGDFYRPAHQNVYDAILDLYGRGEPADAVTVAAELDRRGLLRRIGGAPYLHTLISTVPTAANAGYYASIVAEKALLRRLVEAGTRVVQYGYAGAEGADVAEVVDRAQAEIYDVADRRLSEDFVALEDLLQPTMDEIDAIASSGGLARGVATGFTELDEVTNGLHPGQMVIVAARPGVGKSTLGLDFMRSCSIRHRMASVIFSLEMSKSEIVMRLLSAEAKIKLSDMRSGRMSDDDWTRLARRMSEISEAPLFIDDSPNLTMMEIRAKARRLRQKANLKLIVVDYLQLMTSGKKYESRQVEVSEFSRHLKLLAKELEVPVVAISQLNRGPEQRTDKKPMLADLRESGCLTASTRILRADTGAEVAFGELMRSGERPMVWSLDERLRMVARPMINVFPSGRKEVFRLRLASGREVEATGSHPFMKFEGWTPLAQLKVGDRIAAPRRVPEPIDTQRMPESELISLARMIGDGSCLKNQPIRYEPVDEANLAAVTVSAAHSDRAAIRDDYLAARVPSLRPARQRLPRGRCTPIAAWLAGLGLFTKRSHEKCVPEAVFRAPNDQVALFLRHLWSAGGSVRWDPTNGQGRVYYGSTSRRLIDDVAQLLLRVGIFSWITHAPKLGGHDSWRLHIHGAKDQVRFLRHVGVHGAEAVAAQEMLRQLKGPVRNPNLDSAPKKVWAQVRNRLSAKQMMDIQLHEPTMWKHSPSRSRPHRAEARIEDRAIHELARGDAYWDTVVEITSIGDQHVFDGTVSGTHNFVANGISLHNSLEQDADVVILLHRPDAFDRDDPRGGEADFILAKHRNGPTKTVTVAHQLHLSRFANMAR

[3] = molecular target: T2, Heat shock factor protein 1 (Mus musculus, UniProt P38532); assay: HSF1 potentiators in luciferase reporter cells, confirmation, cell-based, NIH3T3, luminescence, dose retest (AID 435004); format: functional;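 note: stress induced by proteasome inhibitor MG132 added 30 min after compound; luciferase reporter driven by HSF1 response element in NIH3T3 cells; actives raise luminescence as potentiators of the MG132 stress response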
T2 sequence (P38532 whole entry): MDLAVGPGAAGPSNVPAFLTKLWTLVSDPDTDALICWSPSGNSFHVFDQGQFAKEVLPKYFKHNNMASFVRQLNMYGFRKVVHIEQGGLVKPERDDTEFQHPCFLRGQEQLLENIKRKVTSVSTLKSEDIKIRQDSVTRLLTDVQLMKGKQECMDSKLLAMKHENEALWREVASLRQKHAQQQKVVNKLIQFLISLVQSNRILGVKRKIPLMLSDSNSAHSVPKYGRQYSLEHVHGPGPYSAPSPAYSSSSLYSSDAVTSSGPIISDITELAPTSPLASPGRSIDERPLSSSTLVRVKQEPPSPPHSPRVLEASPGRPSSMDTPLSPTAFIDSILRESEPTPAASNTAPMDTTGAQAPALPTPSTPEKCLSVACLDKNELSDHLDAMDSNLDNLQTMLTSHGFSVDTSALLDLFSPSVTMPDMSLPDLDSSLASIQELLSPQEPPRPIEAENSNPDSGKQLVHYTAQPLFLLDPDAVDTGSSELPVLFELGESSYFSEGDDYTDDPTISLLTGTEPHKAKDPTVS

Protein RecA = molecular target: T3, Protein RecA (Mycobacterium tuberculosis, UniProt P9WHJ3); assay: Fluorescence Cell-Free Homogeneous Dose Retest to Identify Inhibitors of RecA-Intein Splicing Activity. [Related pubchem assays (depositor defined):AID2097, AID2223, AID489010, AID492950]; format: functional
T3 sequence (P9WHJ3 whole entry): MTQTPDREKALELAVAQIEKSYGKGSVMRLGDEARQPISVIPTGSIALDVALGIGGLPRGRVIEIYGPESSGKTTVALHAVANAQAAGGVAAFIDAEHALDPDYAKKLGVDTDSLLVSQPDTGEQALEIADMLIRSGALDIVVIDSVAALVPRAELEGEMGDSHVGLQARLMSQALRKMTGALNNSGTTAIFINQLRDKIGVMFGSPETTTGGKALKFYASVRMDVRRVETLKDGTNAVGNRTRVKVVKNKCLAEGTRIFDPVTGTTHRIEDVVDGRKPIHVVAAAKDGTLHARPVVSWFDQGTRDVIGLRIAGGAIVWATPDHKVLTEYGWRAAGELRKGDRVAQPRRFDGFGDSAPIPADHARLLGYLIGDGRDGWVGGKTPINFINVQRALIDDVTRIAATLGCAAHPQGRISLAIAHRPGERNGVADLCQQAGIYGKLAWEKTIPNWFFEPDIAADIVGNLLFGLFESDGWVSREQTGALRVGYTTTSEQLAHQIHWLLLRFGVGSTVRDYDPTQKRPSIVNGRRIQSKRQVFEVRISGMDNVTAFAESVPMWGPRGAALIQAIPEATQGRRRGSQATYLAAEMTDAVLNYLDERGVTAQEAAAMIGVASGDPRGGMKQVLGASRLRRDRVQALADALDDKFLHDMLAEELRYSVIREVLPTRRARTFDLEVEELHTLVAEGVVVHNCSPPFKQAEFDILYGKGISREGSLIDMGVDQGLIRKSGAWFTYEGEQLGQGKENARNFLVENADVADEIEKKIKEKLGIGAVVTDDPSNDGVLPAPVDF

[4] = molecular target: T4, Sentrin-specific protease 6 (Homo sapiens, UniProt Q9GZR1); format: functional;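 note: Luminescence-based dose-response confirmatory assay of SENP6 inhibition, following up an ultra-high-throughput screen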
T4 sequence (Q9GZR1 whole entry): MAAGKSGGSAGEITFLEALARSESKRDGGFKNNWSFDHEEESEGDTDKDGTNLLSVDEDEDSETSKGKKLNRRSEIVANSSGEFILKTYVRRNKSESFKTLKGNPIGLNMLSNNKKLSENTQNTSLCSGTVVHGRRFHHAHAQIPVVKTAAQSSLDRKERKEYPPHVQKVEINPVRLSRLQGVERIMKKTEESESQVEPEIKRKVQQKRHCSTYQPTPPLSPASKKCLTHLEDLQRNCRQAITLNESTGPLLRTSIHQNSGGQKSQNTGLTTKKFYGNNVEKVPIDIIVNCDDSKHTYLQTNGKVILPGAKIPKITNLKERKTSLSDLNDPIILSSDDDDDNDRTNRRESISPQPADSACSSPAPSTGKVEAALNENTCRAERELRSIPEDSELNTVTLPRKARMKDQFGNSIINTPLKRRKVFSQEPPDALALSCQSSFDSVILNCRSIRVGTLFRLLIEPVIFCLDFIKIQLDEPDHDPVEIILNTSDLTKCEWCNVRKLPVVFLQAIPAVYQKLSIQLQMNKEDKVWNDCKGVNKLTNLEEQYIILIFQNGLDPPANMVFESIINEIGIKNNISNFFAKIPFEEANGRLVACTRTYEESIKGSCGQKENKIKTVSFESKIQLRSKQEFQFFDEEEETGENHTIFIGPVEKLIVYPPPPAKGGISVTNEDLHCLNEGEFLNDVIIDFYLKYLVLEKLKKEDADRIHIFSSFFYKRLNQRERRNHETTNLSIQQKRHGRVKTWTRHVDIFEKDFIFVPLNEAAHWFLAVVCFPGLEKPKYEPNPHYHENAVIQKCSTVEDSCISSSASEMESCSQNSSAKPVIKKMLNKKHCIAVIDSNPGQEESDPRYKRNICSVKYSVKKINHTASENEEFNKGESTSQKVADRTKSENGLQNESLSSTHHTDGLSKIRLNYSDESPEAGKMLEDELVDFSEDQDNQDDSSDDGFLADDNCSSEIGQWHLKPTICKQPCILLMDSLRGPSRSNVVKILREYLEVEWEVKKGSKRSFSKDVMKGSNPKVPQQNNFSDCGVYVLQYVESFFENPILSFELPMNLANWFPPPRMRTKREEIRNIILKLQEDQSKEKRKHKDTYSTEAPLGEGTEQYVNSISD

[5] = Vero E6 cell cytotoxicity, dose response, cytotoxicity control for non-replicating M. tuberculosis project, secondary assay (AID 492998); format: functional, VeroE6; settings: Vero C1008
[6] = THP-1 cell cytotoxicity, dose response, cytotoxicity control for non-replicating M. tuberculosis project (AID 489025); format: functional
[7] = growth suppression of beta-catenin-knockout colon cells, dose response, cell-based, HCT116, human colon tumor (AID 1045); format: functional;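 note: HCT116 colon tumor cells with beta catenin knocked out; cells exposed to compound for 60 hours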
[8] = molecular target: T5, Sentrin-specific protease 8 (Homo sapiens, UniProt Q96LD8); format: functional;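 note: luminescence read-out of SENP8 inhibition, dose-response confirmation following an ultra-high-throughput screen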
T5 sequence (Q96LD8 whole entry): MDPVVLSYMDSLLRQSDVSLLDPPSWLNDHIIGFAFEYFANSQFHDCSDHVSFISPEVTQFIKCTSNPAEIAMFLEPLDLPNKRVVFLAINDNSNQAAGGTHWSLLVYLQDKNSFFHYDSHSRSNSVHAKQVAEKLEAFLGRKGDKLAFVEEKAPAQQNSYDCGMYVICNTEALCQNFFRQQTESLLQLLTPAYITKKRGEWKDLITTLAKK

Caspase-3 = molecular target: T6, Caspase-3 (Homo sapiens, UniProt P42574); format: functional;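 note: Dose-response selectivity test against caspase-3 for candidate inhibitors of sentrin-specific proteases (SENPs)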
T6 sequence (P42574 whole entry): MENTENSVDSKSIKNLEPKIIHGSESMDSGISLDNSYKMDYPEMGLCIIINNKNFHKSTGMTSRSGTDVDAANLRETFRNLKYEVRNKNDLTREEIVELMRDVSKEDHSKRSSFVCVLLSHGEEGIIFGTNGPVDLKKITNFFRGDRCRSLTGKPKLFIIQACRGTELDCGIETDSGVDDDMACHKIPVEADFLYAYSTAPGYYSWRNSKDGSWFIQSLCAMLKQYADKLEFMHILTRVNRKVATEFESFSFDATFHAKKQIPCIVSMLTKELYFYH

[9] = molecular target: T7, Sentrin-specific protease 7 (Homo sapiens, UniProt Q9BQF6); format: functional;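 note: Luminescence-based dose-response confirmation of ultra-high-throughput screening hits, measuring inhibition of SENP7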
T7 sequence (Q9BQF6 whole entry): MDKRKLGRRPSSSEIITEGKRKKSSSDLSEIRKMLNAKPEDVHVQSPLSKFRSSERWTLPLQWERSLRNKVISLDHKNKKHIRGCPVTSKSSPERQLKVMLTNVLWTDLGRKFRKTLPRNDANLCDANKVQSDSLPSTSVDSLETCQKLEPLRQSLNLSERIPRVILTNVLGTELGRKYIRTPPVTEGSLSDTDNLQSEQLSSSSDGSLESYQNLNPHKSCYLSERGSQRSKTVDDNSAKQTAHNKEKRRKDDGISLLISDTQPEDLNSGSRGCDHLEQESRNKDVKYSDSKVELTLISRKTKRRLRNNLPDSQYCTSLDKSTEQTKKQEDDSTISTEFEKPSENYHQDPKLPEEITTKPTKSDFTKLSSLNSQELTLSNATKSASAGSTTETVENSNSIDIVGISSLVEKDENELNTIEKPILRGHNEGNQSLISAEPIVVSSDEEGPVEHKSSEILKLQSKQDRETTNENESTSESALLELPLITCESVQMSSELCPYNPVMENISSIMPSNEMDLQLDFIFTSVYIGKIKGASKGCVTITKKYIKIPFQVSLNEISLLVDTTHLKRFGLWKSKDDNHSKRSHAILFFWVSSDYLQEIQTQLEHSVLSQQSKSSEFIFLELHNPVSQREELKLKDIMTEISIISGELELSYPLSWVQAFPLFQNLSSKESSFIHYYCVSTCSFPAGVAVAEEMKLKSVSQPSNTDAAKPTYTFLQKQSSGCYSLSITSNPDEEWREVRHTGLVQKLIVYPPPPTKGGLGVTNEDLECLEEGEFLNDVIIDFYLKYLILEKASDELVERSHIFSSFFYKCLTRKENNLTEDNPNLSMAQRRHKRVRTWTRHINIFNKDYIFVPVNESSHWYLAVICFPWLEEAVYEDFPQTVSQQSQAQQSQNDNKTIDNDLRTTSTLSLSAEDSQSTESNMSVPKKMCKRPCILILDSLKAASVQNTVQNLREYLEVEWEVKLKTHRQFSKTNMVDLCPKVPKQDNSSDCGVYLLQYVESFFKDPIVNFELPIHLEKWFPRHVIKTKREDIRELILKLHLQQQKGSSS

INS1 = assay: beta cell apoptosis inhibitors, cytokine rescue, dose response, luminescence, retest (AID 449756); format: functional, cell-based; settings: Rattus norvegicus;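 note: cell death triggered by IL-1 beta plus TNF-alpha plus IFN-gamma mixture; protective hits raise ATP signal compared with cytokine alone wells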
[10] = growth suppression of PTEN-null colon cells, dose response, cell-based, HCT116 PTEN knockout (AID 1047); format: functional;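 note: HCT116 colon tumor cells with PTEN knocked out; cells exposed to compound for 60 hours before readout; potency for loss of cell viability measured by luminescence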
Fatty acid synthase [11] = molecular target: T8, Fatty acid synthase (Homo sapiens, UniProt P49327); assay: FAS thioesterase domain inhibitors, dose response, biochemical, kinetic fluorescence intensity (AID 624326); format: functional;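 note: rate of fluorescence rise from hydrolysis of a fluorogenic O-methyl fluorescein ester substrate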
Fatty acid synthase [12] = molecular target: T8, Fatty acid synthase; assay: FAS thioesterase domain inhibitors, dose response, biochemical, endpoint fluorescence intensity, uHTS hits (AID 624327); format: functional;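 note: fluorescence from hydrolysis of an O-methyl fluorescein acyl ester substrate by the enzyme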
[13] = insulin promoter down-regulators in MIN6 cells, imaging, high-content screening, mouse beta cells (AID 1628); format: functional
[14] = cytotoxicity in MIN6 insulinoma cells, dose response, cytotoxicity control, cell-based, mouse insulinoma (AID 2122); format: functional;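 note: confirmatory high-throughput counterscreen run to flag cytotoxic compounds; mouse MIN-6 beta cells carrying an insulin promoter eGFP reporter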

T8 sequence (P49327 whole entry, the tested form may be a part): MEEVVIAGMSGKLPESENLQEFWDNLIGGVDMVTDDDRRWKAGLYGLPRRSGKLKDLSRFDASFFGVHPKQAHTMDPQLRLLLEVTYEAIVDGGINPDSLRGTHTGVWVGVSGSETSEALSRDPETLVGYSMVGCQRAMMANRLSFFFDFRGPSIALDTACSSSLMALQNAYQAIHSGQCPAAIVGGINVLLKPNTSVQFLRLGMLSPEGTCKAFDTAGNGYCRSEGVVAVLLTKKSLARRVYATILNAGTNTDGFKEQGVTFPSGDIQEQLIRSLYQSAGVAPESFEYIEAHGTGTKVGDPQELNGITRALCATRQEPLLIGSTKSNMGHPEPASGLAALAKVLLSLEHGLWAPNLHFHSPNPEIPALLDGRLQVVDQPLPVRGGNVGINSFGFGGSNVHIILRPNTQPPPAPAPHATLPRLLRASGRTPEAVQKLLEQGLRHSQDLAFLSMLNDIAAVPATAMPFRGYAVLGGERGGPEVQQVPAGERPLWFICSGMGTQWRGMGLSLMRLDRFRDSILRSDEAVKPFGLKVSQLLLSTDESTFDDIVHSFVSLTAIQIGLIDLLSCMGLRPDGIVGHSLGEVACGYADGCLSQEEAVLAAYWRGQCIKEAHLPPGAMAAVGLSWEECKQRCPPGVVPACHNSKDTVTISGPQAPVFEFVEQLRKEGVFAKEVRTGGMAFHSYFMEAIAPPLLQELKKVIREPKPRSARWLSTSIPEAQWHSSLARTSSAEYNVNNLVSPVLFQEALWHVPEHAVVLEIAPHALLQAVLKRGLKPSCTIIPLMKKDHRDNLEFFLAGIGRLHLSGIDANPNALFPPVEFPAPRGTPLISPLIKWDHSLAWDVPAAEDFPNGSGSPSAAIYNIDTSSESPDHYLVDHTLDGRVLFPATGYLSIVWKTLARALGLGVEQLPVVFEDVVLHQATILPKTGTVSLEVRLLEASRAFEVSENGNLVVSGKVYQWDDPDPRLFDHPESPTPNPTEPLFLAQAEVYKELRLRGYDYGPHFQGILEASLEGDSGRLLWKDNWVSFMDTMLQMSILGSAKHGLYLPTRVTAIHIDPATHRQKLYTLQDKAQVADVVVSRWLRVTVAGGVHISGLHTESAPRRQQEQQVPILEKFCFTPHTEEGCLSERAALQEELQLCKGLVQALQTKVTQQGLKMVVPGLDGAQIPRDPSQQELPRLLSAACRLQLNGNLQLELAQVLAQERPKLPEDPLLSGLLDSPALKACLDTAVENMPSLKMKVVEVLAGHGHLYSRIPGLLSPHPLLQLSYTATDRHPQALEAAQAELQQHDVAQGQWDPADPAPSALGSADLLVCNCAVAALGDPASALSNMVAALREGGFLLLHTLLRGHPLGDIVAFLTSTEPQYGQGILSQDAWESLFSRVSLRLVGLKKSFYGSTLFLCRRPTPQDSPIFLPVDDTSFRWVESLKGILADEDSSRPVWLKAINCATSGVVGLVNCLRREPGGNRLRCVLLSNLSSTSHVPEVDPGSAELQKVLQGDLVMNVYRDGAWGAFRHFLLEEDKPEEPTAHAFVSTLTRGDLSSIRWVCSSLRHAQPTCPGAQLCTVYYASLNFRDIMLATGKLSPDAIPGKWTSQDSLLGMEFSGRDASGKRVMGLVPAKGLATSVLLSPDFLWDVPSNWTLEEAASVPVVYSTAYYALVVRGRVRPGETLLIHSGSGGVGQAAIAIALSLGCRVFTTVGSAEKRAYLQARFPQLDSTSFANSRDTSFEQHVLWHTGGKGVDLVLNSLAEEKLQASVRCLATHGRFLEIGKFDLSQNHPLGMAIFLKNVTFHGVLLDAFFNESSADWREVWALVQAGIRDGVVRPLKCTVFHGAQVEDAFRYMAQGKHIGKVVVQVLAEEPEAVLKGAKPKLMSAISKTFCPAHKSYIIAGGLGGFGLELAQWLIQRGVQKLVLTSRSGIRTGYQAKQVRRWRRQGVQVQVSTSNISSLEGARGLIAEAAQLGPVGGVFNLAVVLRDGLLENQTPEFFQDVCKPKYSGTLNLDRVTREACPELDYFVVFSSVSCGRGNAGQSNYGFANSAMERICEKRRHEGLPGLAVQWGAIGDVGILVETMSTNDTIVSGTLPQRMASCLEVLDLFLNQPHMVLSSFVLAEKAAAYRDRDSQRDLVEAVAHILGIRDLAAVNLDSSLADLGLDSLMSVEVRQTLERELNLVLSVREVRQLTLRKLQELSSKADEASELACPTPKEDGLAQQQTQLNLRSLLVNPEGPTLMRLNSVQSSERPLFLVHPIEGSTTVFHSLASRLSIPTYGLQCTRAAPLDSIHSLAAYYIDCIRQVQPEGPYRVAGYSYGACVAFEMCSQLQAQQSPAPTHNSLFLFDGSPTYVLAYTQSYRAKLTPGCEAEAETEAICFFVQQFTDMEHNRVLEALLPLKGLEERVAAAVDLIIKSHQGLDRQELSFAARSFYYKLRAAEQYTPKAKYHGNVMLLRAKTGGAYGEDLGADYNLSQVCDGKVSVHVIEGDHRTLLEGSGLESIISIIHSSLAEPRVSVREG

In the case of Cc1[nH]n(-c2ccccc2)c(=O)c1C(C[N+](=O)[O-])c1ccc(F)cc1 (stereo not given), the CC50 [1] is reported as > 40 µM (active), the AC50 [2] is reported as 0.729 µM (active) and the EC50 [3] is reported as > 260 µM (inactive). The EC50 (Protein RecA) was 4.2 µM (active).
With O=[N+]([O-])c1ccc(-c2nc3cc([N+](=O)[O-])ccc3[nH]2)cc1 the IC50 [4] was 27.4 µM (active), the CC50 [5] was 19.9 µM (active) and the CC50 [6] was 29.4 µM (active). The EC50 [7] was 13.2 µM (active), the IC50 [8] was 24.8 µM (active) and the IC50 (Caspase-3) was 27.2 µM (active). For the same compound, the IC50 [9] was 17 µM (active), the AC50 (INS1) was 3.9 µM (active) and the EC50 [10] was 12 µM (active).
In the case of CC(CCc1ccccc1)NC(=O)COC(=O)c1cc(NS(=O)(=O)c2ccc(Cl)c([N+](=O)[O-])c2)ccc1O (stereo not given), the IC50 (Fatty acid synthase [11]) is reported as 6.97 µM (active), the CC50 [1] is reported as 32.9 µM (active) and the AC50 [2] is reported as 3.63 µM (active). The IC50 (Fatty acid synthase [12]) was 11.1 µM (active) and the EC50 (Protein RecA) was 2.95 µM (active).
In the case of Cc1cc(C)nc(N=C(N)Nc2ccc(OCc3ccccc3)cc2)n1, the IC50 [13] is reported as 0.988 µM (active) and the IC50 [14] is reported as 1.22 µM (active).
